Test system: EntC1
Experiment: ITC, EntC1
Type: binding
Details: titration of EntC2 with EntC1

Structure (SMILES): CC[C@H](C)[C@H](NC(=O)CNC(=O)[C@H](CCCCN)NC(=O)[C@H](C)NC(=O)[C@H](CC(C)C)NC(=O)CNC(=O)[C@H](C)NC(=O)[C@@H](NC(=O)[C@H](Cc1ccccc1)NC(=O)[C@H](CC(=O)O)NC(=O)[C@H](Cc1ccc(O)cc1)NC(=O)[C@H](C)NC(=O)[C@@H]1CCCN1C(=O)[C@H](CCC(N)=O)NC(=O)[C@H](CC(C)C)NC(=O)[C@H](Cc1c[nH]c2ccccc12)NC(=O)[C@@H]1CCCN1C(=O)[C@H](CC(C)C)NC(=O)[C@H](Cc1c[nH]c2ccccc12)NC(=O)[C@H](CCCCN)NC(=O)CNC(=O)[C@@H]1CCCN1C(=O)CN)C(C)C)C(=O)NCC(=O)N[C@@H](CCCCN)C(=O)N[C@@H](CCC(=O)O)C(=O)NCC(=O)N[C@@H](CC(N)=O)C(=O)N[C@@H](CCCCN)C(=O)N[C@@H](CC(N)=O)C(=O)N[C@@H](CCCCN)C(=O)N[C@@H](Cc1c[nH]c2ccccc12)C(=O)N[C@@H](CCCCN)C(=O)N[C@@H](CC(N)=O)C(=O)N[C@H](C(=O)O)C(C)C (single isomer, unassigned) [EntC2]
- binding to EntC1 (ITC): No binding
